Assays:
barnyard grass [1] = assay: Test Example 4: herbicidal effect by soil treatment (Table 19, symbol H); format: in vivo, barnyard grass (Echinochloa crus-galli); settings: amount of applied herbicide 320 g/ha
Source text: (§1) [Test Example 4] Herbicidal Effect Test by Soil Treatment
(§2) Sterilized diluvial soil was placed in a plastic box having a length of 21 cm, a width of 13 cm, and a depth of 7 cm. The seeds of each of southern crabgrass, green foxtail, barnyard grass, wild oat, blackgrass, Italian ryegrass, windgrass, velvetleaf, redroot pigweed, lambsquarters, chickweed, false cleavers, persian speedwell, corn, soybean, rice, wheat, beet, and rapeseed were sowed in a spot-like manner and covered with the soil having a thickness of about 1.5 cm. Subsequently, the emulsion agent of the compound of the present invention prepared according to Formulation Example 2 was diluted with water so as to achieve a predetermined herbicide amount, and the diluted emulsion agent was uniformly applied to the surface of the soil with a small-sized spray. The plastic box was placed in a greenhouse at 25° C. to 30° C. for growth of the plants. Three weeks after the herbicide application, the effect of the herbicide on each plant was evaluated according to the criteria of Test Example 1.

barnyard grass [2] = assay: Test Example 5: herbicidal effect by foliage application, plastic box (Table 20, symbol H); format: in vivo, barnyard grass (Echinochloa crus-galli)
Source text: (§3) [Test Example 5] Herbicidal Effect Test by Foliage Application
as §2, with “Thereafter, the plants were grown in a greenhouse at 25° C. to 30° C. After 14-day growth of the plants,” for “Subsequently,”, “a foliage part” for “the surface of the soil”, “spray.” for “spray. The plastic box was placed in a greenhouse at 25° C. to 30° C. for growth of the plants.”

redroot pigweed [3] = assay: Test Example 5: herbicidal effect by foliage application, plastic box (Table 20, symbol N); format: in vivo, redroot pigweed (Amaranthus retroflexus)
Source text: as §3
as §2, with “Thereafter, the plants were grown in a greenhouse at 25° C. to 30° C. After 14-day growth of the plants,” for “Subsequently,”, “a foliage part” for “the surface of the soil”, “spray.” for “spray. The plastic box was placed in a greenhouse at 25° C. to 30° C. for growth of the plants.”

lambsquarters [4] = assay: Test Example 5: herbicidal effect by foliage application, plastic box (Table 20, symbol O); format: in vivo, lambsquarters (Chenopodium album)
Source text: as §3
as §2, with “Thereafter, the plants were grown in a greenhouse at 25° C. to 30° C. After 14-day growth of the plants,” for “Subsequently,”, “a foliage part” for “the surface of the soil”, “spray.” for “spray. The plastic box was placed in a greenhouse at 25° C. to 30° C. for growth of the plants.”

velvetleaf [5] = assay: Test Example 4: herbicidal effect by soil treatment (Table 19, symbol M); format: in vivo, velvetleaf (Abutilon theophrasti); settings: amount of applied herbicide 320 g/ha
Source text: as §1, §2

green foxtail [6] = assay: Test Example 4: herbicidal effect by soil treatment (Table 19, symbol G); format: in vivo, green foxtail (Setaria viridis); settings: amount of applied herbicide 320 g/ha
Source text: as §1, §2

southern crabgrass [7] = assay: Test Example 4: herbicidal effect by soil treatment (Table 19, symbol F); format: in vivo, southern crabgrass (Digitaria ciliaris); settings: amount of applied herbicide 320 g/ha
Source text: as §1, §2

barnyard grass [8] = assay: Test Example 3: herbicidal effect by foliage application, Wagner pot (Table 18, symbol H); format: in vivo, barnyard grass (Echinochloa crus-galli)
Outline: (§4)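 Plants were sown in alluvial soil held under 0.1–0.5 cm standing water and grown 14 days in a greenhouse at 25–30 °C. An emulsifiable formulation, water-diluted to the set dose, was then sprayed onto the foliage, and effects were scored three weeks later using previously defined criteria.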

redroot pigweed [9] = assay: Test Example 4: herbicidal effect by soil treatment (Table 19, symbol N); format: in vivo, redroot pigweed (Amaranthus retroflexus); settings: amount of applied herbicide 320 g/ha
Source text: as §1, §2

Chinese sprangletop = assay: Test Example 3: herbicidal effect by foliage application, Wagner pot (Table 18, symbol D); format: in vivo, chinese sprangletop (Leptochloa chinensis)
Outline: as §4

lambsquarters [10] = assay: Test Example 4: herbicidal effect by soil treatment (Table 19, symbol O); format: in vivo, lambsquarters (Chenopodium album); settings: amount of applied herbicide 320 g/ha
Source text: as §1, §2

velvetleaf [11] = assay: Test Example 5: herbicidal effect by foliage application, plastic box (Table 20, symbol M); format: in vivo, velvetleaf (Abutilon theophrasti)
Source text: as §3
as §2, with “Thereafter, the plants were grown in a greenhouse at 25° C. to 30° C. After 14-day growth of the plants,” for “Subsequently,”, “a foliage part” for “the surface of the soil”, “spray.” for “spray. The plastic box was placed in a greenhouse at 25° C. to 30° C. for growth of the plants.”

green foxtail [12] = assay: Test Example 5: herbicidal effect by foliage application, plastic box (Table 20, symbol G); format: in vivo, green foxtail (Setaria viridis)
Outline: (§5)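 Post-emergence foliar test in sterilized diluvial soil. Compound applied as water-diluted emulsion at a predetermined rate to 14-day-old plants; evaluation at three weeks.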

rice flat sedge = assay: Test Example 3: herbicidal effect by foliage application, Wagner pot (Table 18, symbol E); format: in vivo, rice flat sedge (Cyperus iria)
Outline: as §4

southern crabgrass [13] = assay: Test Example 5: herbicidal effect by foliage application, plastic box (Table 20, symbol F); format: in vivo, southern crabgrass (Digitaria ciliaris)
Outline: as §5

wild oat = assay: Test Example 5: herbicidal effect by foliage application, plastic box (Table 20, symbol I); format: in vivo, wild oat (Avena fatua); settings: amount of applied herbicide 320 g/ha; foliage application after 14-day growth; evaluated three weeks after application
Outline: as §5

blackgrass = assay: Test Example 5: herbicidal effect by foliage application, plastic box (Table 20, symbol J); format: in vivo, blackgrass (Alopecurus myosuroides); settings: amount of applied herbicide 320 g/ha; foliage application after 14-day growth; evaluated three weeks after application
Outline: as §5

Italian ryegrass = assay: Test Example 5: herbicidal effect by foliage application, plastic box (Table 20, symbol K); format: in vivo, Italian ryegrass (Lolium multiflorum); settings: amount of applied herbicide 320 g/ha; foliage application after 14-day growth; evaluated three weeks after application
Outline: as §5

chickweed = assay: Test Example 5: herbicidal effect by foliage application, plastic box (Table 20, symbol P); format: in vivo, common chickweed (Stellaria media); settings: amount of applied herbicide 320 g/ha; foliage application after 14-day growth; evaluated three weeks after application
Source text: as §3
as §2, with “Thereafter, the plants were grown in a greenhouse at 25° C. to 30° C. After 14-day growth of the plants,” for “Subsequently,”, “a foliage part” for “the surface of the soil”, “spray.” for “spray. The plastic box was placed in a greenhouse at 25° C. to 30° C. for growth of the plants.”

windgrass = assay: Test Example 5: herbicidal effect by foliage application, plastic box (Table 20, symbol L); format: in vivo, windgrass (Apera spica-venti); settings: amount of applied herbicide 320 g/ha; foliage application after 14-day growth; evaluated three weeks after application
Source text: as §3
as §2, with “Thereafter, the plants were grown in a greenhouse at 25° C. to 30° C. After 14-day growth of the plants,” for “Subsequently,”, “a foliage part” for “the surface of the soil”, “spray.” for “spray. The plastic box was placed in a greenhouse at 25° C. to 30° C. for growth of the plants.”

[14] = foliage application, 320 g/ha, three weeks after application
[15] = amount of applied herbicide 320 g/ha
[16] = 320 g/ha, foliage application after 14-day growth, evaluated three weeks after application
[17] = amount of applied herbicide 320 g/ha, foliage application after 14-day growth, evaluated three weeks after application

Cc1nn(C)c(=O)c(-c2c(-c3ccsc3)sc3ccc(F)cc23)c1O [2-463]
herbicidal effect, H: barnyard grass (barnyard grass [1]): 3 (Herbicidal rate of 40% or more and less than 70%) | H: barnyard grass, herbicidal effect grade (barnyard grass [2]; [14]): 3 (Herbicidal rate of 40% or more and less than 70%) | N: redroot pigweed, herbicidal effect grade (redroot pigweed [3]; [14]): 5 (Herbicidal rate of 90% or more (almost completely withered)) | O: lambsquarters, herbicidal effect grade (lambsquarters [4]; [14]): 3 (Herbicidal rate of 40% or more and less than 70%) | herbicidal effect, M: velvetleaf (velvetleaf [5]): 3 (Herbicidal rate of 40% or more and less than 70%) | herbicidal effect, G: green foxtail (green foxtail [6]): 0 (Herbicidal rate of 5% or less (almost no effect)) | herbicidal effect, F: southern crabgrass (southern crabgrass [7]): 2 (Herbicidal rate of 20% or more and less than 40%) | herbicidal effect on H: barnyard grass (barnyard grass [8]; [15]): 3 (Herbicidal rate of 40% or more and less than 70%) | herbicidal effect, N: redroot pigweed (redroot pigweed [9]): 4 (Herbicidal rate of 70% or more and less than 90%) | herbicidal effect on D: Chinese sprangletop (Chinese sprangletop; [15]): 0 (Herbicidal rate of 5% or less (almost no effect)) | herbicidal effect, O: lambsquarters (lambsquarters [10]): 3 (Herbicidal rate of 40% or more and less than 70%) | M: velvetleaf, herbicidal effect grade (velvetleaf [11]; [14]): 5 (Herbicidal rate of 90% or more (almost completely withered)) | G: green foxtail, herbicidal effect grade (green foxtail [12]; [14]): 3 (Herbicidal rate of 40% or more and less than 70%) | herbicidal effect on E: rice flat sedge (rice flat sedge; [15]): 0 (Herbicidal rate of 5% or less (almost no effect)) | F: southern crabgrass, herbicidal effect grade (southern crabgrass [13]; [14]): 4 (Herbicidal rate of 70% or more and less than 90%)

Cc1ccc2c(-c3c(O)c(C)nn(C)c3=O)c(-c3ccc(OC(F)(F)F)cc3)sc2c1 [3-168]
Herbicidal effect by soil treatment, H: barnyard grass (barnyard grass [1]): 0 (Herbicidal rate of 5% or less (almost no effect)) | herbicidal effect on H: barnyard grass (evaluation grade 0-5) (barnyard grass [2]; [16]): 0 (Herbicidal rate of 5% or less (almost no effect)) | herbicidal effect on N: redroot pigweed (evaluation grade 0-5) (redroot pigweed [3]; [16]): 2 (Herbicidal rate of 20% or more and less than 40%) | herbicidal effect on O: lambsquarters (evaluation grade 0-5) (lambsquarters [4]; [16]): 3 (Herbicidal rate of 40% or more and less than 70%) | Herbicidal effect by soil treatment, M: velvetleaf (velvetleaf [5]): 0 (Herbicidal rate of 5% or less (almost no effect)) | Herbicidal effect by soil treatment, G: green foxtail (green foxtail [6]): 0 (Herbicidal rate of 5% or less (almost no effect)) | Herbicidal effect by soil treatment, F: southern crabgrass (southern crabgrass [7]): 0 (Herbicidal rate of 5% or less (almost no effect)) | Herbicidal effect by soil treatment, N: redroot pigweed (redroot pigweed [9]): 3 (Herbicidal rate of 40% or more and less than 70%) | Herbicidal effect by soil treatment, O: lambsquarters (lambsquarters [10]): 0 (Herbicidal rate of 5% or less (almost no effect)) | herbicidal effect on M: velvetleaf (evaluation grade 0-5) (velvetleaf [11]; [16]): 0 (Herbicidal rate of 5% or less (almost no effect)) | herbicidal effect on G: green foxtail (evaluation grade 0-5) (green foxtail [12]; [16]): 0 (Herbicidal rate of 5% or less (almost no effect)) | herbicidal effect on F: southern crabgrass (evaluation grade 0-5) (southern crabgrass [13]; [16]): 0 (Herbicidal rate of 5% or less (almost no effect))

Cc1nn(C)c(=O)c(-c2c(-c3cccc(C(F)(F)F)c3)sc3c(Cl)cccc23)c1O [4-072]
Herbicidal effect by foliage application, I: wild oat (wild oat): 0 (Herbicidal rate of 5% or less (almost no effect)) | Herbicidal effect by foliage application, H: barnyard grass (barnyard grass [2]; [17]): 1 (Herbicidal rate of 5% or more and less than 20%) | Herbicidal effect by foliage application, N: redroot pigweed (redroot pigweed [3]; [17]): 5 (Herbicidal rate of 90% or more (almost completely withered)) | Herbicidal effect by foliage application, O: lambsquarters (lambsquarters [4]; [17]): 2 (Herbicidal rate of 20% or more and less than 40%) | herbicidal effect on barnyard grass (H) (barnyard grass [8]; 320 g/ha): 3 (Herbicidal rate of 40% or more and less than 70%) | Herbicidal effect by foliage application, J: blackgrass (blackgrass): 0 (Herbicidal rate of 5% or less (almost no effect)) | herbicidal effect on Chinese sprangletop (D) (Chinese sprangletop; 320 g/ha): 3 (Herbicidal rate of 40% or more and less than 70%) | Herbicidal effect by foliage application, K: Italian ryegrass (Italian ryegrass): 1 (Herbicidal rate of 5% or more and less than 20%) | Herbicidal effect by foliage application, P: chickweed (chickweed): 5 (Herbicidal rate of 90% or more (almost completely withered)) | Herbicidal effect by foliage application, L: windgrass (windgrass): 0 (Herbicidal rate of 5% or less (almost no effect)) | Herbicidal effect by foliage application, M: velvetleaf (velvetleaf [11]; [17]): 3 (Herbicidal rate of 40% or more and less than 70%) | Herbicidal effect by foliage application, G: green foxtail (green foxtail [12]; [17]): 3 (Herbicidal rate of 40% or more and less than 70%) | herbicidal effect on rice flat sedge (E) (rice flat sedge; 320 g/ha): 4 (Herbicidal rate of 70% or more and less than 90%) | Herbicidal effect by foliage application, F: southern crabgrass (southern crabgrass [13]; [17]): 4 (Herbicidal rate of 70% or more and less than 90%)
